The results in this text go back to article PMC6017732, “Identification and Characterizations of Novel, Selective Histone Methyltransferase SET7 Inhibitors by Scaffold Hopping- and 2D-Molecular Fingerprint-Based Similarity Search” (Molecules : A Journal of Synthetic Chemistry and Natural …, 2018).

The IC50 is the concentration that gives 50% inhibition.

Assay [1] deals with T1, SET7 (Homo sapiens, UniProt Q8WTS6).
T1 sequence (Q8WTS6 117-366 limits assumed): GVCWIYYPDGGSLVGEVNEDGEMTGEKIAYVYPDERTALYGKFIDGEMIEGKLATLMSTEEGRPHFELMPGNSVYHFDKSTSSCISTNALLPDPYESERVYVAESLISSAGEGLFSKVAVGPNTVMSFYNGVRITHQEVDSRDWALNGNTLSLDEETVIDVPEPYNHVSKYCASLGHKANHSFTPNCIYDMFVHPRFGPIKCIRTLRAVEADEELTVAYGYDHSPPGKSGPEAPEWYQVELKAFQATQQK
Description: Ligand observed T1rho (CPMG) NMR experiment. As to conditions: 20 μM compound, 2.5 μM SET7. Type of assay: binding. On the procedure:
Ligand observed T1ρ NMR experiment were applied to investigate ligand-protein interactions. All NMR spectra were acquired at 25 °C on a 600 MHz Bruker Avance III spectrometer equipped with a cryogenically cooled probe (Bruker Biospin, Ettlingen, Germany). Samples containing 20 μM DC-S285, and 20 μM DC-S285 in the presence of 2.5 μM SET7 were dissolved in Tris-HCl buffer (50 mM Tris-HCl, 100 mM NaCl, pH 7.4, 5% DMSO, 95% D2O) and then used in NMR data acquisition. T1ρ spectra were recorded by using the pulse sequence of solvent-suppressed ^1D ^1H CPMG (cpmgPr1d). The 90° pulse length was adjusted to about 11.80 μs. A total of four dummy scans and 64 free induction decays (FIDs) were collected into 64 K acquisition points, covering a spectral width of 12 kHz (20 ppm) and giving an acquisition time (ACQ) of 2.73 s. STD data was acquired using 4 dummy scans and a relaxation delay of 3 s, followed by a 40 dB pulsed irradiation at frequency of −1.0 ppm or 33 ppm alternatively. The total acquisition time for STD spectrum was 23 min with 128 FIDs.

In another assay the test system is THP1 leukemia cell line. Description: Cell viability assay (alamarBlue / MTT), THP1. As to conditions: Homo sapiens, THP-1, 72 h, THP1, approximately 72 h. Type of assay: cell-based. Here is the method: (§1) MCF7, HL60, MV4-11, K562, Kasumi-1, U937, THP1, and Jurkat cell lines were purchased from American Type Culture Collection (Manassas, VA, USA). Fetal bovine serum was purchased from Life Technologies. MCF7 cells were cultured in DMEM medium supplemented with 10% fetal bovine serum at 37 °C in an incubator with 5% CO2 atmosphere. HL60 and MV4-11 cells were cultured in 1640 medium supplemented with 10% fetal bovine serum. K562, Kasumi-1 and HL60 were cultured in 96 plate at 10,000/well for 2 h. DC-S285 was dissolved in DMSO (Sigma) and then stored at 4 °C. The cells were incubated with DC-S285 at different concentrations ranging from 0 to 100 µM for approximately 72 h. The activities of […] against MCF7, HL60, MV4-11, K562, Kasumi-1, U937, THP1, and Jurkat were measured by the alamarBlue assays and MTT assays.

The test system of assay [2] is MCF7 (breast cancer) cells. The assay can be described thus: Cell viability assay (alamarBlue / MTT), MCF7. The class given is cell-based. As to conditions: Homo sapiens, MCF7, 72 h, MCF7, approximately 72 h. On the procedure:
as §1

In assay [3] the target is T2, SET7 (Homo sapiens, UniProt Q8WTS6).
T2 sequence (Q8WTS6 1-366): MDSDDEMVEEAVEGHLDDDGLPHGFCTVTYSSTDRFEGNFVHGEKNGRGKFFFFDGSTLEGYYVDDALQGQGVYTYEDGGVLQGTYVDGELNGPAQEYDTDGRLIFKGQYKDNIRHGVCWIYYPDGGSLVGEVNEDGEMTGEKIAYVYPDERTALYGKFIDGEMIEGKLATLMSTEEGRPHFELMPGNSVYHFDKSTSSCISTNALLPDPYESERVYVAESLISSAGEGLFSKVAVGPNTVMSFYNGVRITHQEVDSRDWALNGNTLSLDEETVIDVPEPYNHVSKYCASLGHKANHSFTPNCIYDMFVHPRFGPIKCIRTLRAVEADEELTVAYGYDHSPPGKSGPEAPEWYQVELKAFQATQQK
Description: AlphaLISA SET7 inhibition assay. The class given is biochemical. As to conditions: for IC50: SET7; for inhibition at 100 µM: read-out: Inhibition Ratio at 100 μM/%. On the procedure: AlphaLISA assays were applied to determine the inhibitory activity targeting SET7. The purified SET7 protein was incubated in modified Tris buffer in 384-well plates (Perkin Elmer, Cat. No. 6007299, Waltham, MA, USA) at room temperature for 15 min. The compounds were transferred to the assay plate using Echo in 100% DMSO, and substrate solution was added to each well to start the reaction. Acceptor and donor beads were added and incubated for 60 min at room temperature, shielded from light. The endpoint was evaluated with EndSpire in Alpha mode. The experimental data was fitted in GraphPad Prism 5 to obtain inhibition values using the equation as follows:(1) Inhibition %= Max−Siginal/Max−Min×100%
On the technique in general: In Alpha technology, singlet oxygen from a donor bead excites a nearby acceptor bead.

The subject of the next assay is U937 leukemia cell line. Description: Cell viability assay (alamarBlue / MTT), U937. The class given is cell-based. As to conditions: Homo sapiens, U-937, 72 h, U937, approximately 72 h. Here is the method:
as §1
(The colour change of resazurin is a common sign of viable cells or microbes.)

The target in assay [4] is T2, SET7. Description: 3H-labeled radioisotope methylation assay. Type of assay: biochemical. The settings on record: 3H radioactive methylation assay. On the procedure:
As for ^3Hradioactive methylation assay, SAH was used as the reference compound and the compounds were tested in 10 concentrations in duplicate in modified Tris buffer (1× assay buffer). The following materials were purchased: SET7 (Enzo, Cat. No. ALX-201-178, New York, NY, USA), [^3H]-SAM (PerkinElmer Inc., Lot. No. 1790854), SAH (Sigma, Cat. No. A9384-25MG, St. Louis, MO, USA) and 384-well Flashplate (Perkin Elmer, Cat. No. SMP410A001PK,). The compounds were transferred to the assay plate by Echo 550 with 3-fold dilution in 100% DMSO where the final DMSO concentration is 1%. Then the enzyme solution was transferred to the assay plate and 1× assay buffer was transferred for low control. After 15 min incubation at room temperature, peptide and [^3H]-SAM mix solution was transferred to each well to start the reaction. The cold SAM in 1× buffer was added to each well to stop the reaction after 60 min incubation at room temperature. 25 μL of the whole reaction system per well was transferred to Flashplate which was washed with dH2O and 0.1% Tween-20 for three times after 60 min incubation. The data was read on Microbeta. All the inhibition assays are performed in duplicate.

The subject of assay [5] is Jurkat leukemia cell line. Description: Cell viability assay (alamarBlue / MTT), Jurkat. The class given is cell-based. The settings on record: Homo sapiens, 72 h, approximately 72 h. On the procedure: as §1
The next assay addresses T3, SMYD2 (Homo sapiens, UniProt Q9NRG4).
T3 construct: purchased Active Motif 31323
Description: Enzymatic selectivity assay SMYD2 (Alpha mode). The settings on record: SMYD2, 100 μM; read-out: Inhibition Ratio at 100 μM/%. The class given is biochemical. On the procedure:
(§2) For SETD1B, G9a and SMYD2, the activities against those targets were tested in modified Tris buffer (1× assay buffer). All the solid compounds were dissolved to 20 mM in 100% DMSO. The materials used were SETD1B (Active Motif, Cat. No. M1083, Carlsbad, CA, USA), G9a (BPS, Cat. No. 51001, San Diego, CA, USA), […] and 384-well plate (Perkin Elmer, Cat. No. 6007299). Both the enzyme solution and the substrate solution were prepared in 1× assay buffer enzyme solution or 1× assay buffer for low control was transferred to the assay plate. Then substrate mix solution was added to each well to start the solution for 15 min incubation at room temperature. For SETD1B, G9a, the incubation time was adjusted to 60 min and for SMYD2, the incubation time was set to 240 min. For detection, acceptor and donor beads were added and incubated for 60 min at room temperature, shielded from light. The endpoint was evaluated with EnSpire in Alpha mode.

The target in the next assay is T4, SETD1B (Homo sapiens, UniProt Q9UPS6).
T4 construct: purchased Active Motif M1083
Description: Enzymatic selectivity assay SETD1B (Alpha mode). Type of assay: biochemical. The settings on record: read-out: Inhibition Ratio at 100 μM/%. On the procedure:
as §2

A further assay deals with T5, SETD8 (Homo sapiens, UniProt Q9NQR1).
T5 sequence (Q9NQR1 1-393): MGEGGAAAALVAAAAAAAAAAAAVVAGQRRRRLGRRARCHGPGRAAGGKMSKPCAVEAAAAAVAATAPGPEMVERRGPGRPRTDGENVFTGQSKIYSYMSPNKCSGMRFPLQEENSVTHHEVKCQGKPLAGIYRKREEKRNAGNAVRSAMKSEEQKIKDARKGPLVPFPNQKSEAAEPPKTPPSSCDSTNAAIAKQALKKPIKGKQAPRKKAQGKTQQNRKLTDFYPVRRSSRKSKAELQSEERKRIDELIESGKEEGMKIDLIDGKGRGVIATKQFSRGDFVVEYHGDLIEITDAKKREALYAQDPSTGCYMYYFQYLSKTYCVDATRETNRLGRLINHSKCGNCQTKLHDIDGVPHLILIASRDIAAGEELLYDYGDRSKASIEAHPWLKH
The assay can be described thus: Radioactive methylation inhibition assay of SETD8. The class given is biochemical. The settings on record: SETD8, 100 μM; read-out: Inhibition Ratio at 100 μM/%. Here is the method:
The radioactive methylation inhibition assay of SETD8 was performed in modified Tris buffer. […] and [^3H]-SAM (PerkinElmer, Cat No. NET1551MC) were added in 1x buffer as the substrate solution. The enzyme solution was incubated at room temperature for 15 min before substrate solution was added to each well to start the reaction. Cold SAM (Sigma, Cat. No. 7007-100MG) was added in 1x buffer to prepare the stop mix, and was added to stop the reaction; finally 10 μL of the reaction system was transferred to flashplate (PerkinElmer Inc., Cat. No. SMP410A001PK) and incubated at room temperature for a minimum of 2 h. The plate was washed three times with dH2O and 0.1% Tween-20, and the radioactivity signal was detected by liquid scintillation counting (MicroBeta, PerkinElmer). SAH was used as the reference compound.

In the next assay the target is T6, G9a (Homo sapiens, UniProt Q96KQ7).
T6 construct: purchased BPS 51001
T6 sequence (Q96KQ7 785-1210 limits assumed): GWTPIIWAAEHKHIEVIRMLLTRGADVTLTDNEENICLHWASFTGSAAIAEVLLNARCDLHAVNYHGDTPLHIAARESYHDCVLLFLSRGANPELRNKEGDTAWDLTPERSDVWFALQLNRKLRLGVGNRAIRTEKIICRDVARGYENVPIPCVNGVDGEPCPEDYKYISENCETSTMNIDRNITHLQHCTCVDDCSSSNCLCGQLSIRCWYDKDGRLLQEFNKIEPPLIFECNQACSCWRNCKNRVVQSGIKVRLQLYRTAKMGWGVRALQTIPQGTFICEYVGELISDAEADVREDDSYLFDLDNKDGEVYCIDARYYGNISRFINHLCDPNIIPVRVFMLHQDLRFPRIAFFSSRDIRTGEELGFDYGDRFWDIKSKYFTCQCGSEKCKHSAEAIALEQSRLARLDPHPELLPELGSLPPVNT
Description: Enzymatic selectivity assay G9a (Alpha mode). Type of assay: biochemical. As to conditions: read-out: Inhibition Ratio at 100 μM/%. Here is the method:
as §2

A further assay deals with EZH2 (Homo sapiens, UniProt Q15910). Description: Radioactive methylation inhibition assay of EZH2. Type of assay: biochemical. The settings on record: EZH2, 100 μM. On the procedure:
The radioactive methylation inhibition assay of EZH2 was performed in modified Tris buffer. H3K27me peptide and [^3H]-SAM (Perkin Elmer Inc. Waltham, MA, USA, Lot. No. 1731619) were added in 1x buffer as the substrate solution. The […] solution was incubated at room temperature for 15 min before substrate solution was added to each well to start the reaction. Cold SAM (Sigma, Cat. NO. 7007) was added in 1× buffer to prepare stop mix (final concentration 0.5 mM), and was added to stop the reaction; finally 25 μL of the reaction system was transferred to a FlashPlate (Perkin Elmer, Cat. No. SMP410A001PK) and incubated at room temperature for a minimum of 1 h. The plate was washed three times with dH2O and 0.1% Tween-20, and the radioactivity was determined by liquid scintillation counting (MicroBeta). GSK-126 was used as the reference compound.

Where two headings read alike, the source gives them in different places.

Sequence of EZH2 (Q15910 whole entry, species assumed): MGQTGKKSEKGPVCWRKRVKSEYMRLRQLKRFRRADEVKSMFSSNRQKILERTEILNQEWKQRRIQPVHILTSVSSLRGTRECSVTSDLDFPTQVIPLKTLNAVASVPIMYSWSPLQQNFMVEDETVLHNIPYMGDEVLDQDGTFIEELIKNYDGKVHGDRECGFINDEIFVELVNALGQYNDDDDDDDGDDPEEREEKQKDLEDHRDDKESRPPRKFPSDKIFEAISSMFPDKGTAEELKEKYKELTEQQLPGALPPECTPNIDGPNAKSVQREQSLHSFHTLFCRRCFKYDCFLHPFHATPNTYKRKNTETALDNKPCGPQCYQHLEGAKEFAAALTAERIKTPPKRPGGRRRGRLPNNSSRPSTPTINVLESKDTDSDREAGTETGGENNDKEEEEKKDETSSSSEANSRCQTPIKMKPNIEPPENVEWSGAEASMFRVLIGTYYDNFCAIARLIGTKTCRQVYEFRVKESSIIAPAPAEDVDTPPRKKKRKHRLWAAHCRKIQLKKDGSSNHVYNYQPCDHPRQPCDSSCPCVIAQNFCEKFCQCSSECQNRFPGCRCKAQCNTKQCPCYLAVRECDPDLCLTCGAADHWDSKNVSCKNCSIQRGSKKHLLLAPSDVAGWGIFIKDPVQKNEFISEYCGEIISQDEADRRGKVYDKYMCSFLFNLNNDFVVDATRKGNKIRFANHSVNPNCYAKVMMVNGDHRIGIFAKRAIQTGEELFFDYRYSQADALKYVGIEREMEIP
Sequence of EZH2 (O75530 whole entry partner, species assumed): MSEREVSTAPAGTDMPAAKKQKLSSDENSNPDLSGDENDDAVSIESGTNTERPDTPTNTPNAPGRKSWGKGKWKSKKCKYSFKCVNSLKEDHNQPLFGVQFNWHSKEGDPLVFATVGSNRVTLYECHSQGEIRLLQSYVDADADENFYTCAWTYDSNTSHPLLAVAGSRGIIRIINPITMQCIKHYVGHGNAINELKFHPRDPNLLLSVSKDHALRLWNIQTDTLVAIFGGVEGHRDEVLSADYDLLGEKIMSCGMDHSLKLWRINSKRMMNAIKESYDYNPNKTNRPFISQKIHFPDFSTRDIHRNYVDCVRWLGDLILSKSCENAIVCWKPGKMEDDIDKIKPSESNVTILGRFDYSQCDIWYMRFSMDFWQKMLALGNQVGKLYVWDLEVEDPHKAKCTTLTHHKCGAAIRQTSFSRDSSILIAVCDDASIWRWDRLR
Sequence of EZH2 (Q15022 whole entry partner, species assumed): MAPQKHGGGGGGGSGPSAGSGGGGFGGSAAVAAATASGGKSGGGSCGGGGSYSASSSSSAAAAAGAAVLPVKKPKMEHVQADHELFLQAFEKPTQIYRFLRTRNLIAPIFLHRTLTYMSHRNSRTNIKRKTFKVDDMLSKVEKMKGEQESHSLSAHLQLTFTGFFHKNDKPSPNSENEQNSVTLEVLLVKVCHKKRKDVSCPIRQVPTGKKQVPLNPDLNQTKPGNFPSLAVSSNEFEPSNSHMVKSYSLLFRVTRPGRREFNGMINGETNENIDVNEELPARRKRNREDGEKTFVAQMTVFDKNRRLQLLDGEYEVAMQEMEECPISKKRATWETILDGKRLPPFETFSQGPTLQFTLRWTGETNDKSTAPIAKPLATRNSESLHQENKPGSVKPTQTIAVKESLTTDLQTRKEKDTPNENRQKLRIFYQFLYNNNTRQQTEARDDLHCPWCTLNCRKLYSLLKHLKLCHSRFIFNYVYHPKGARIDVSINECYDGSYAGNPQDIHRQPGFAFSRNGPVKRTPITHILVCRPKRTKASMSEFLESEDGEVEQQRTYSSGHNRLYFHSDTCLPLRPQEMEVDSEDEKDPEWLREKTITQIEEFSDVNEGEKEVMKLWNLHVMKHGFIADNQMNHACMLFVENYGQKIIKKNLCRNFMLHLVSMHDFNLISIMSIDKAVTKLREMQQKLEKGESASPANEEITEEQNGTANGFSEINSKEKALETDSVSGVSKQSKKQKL
T3 sequence (Q9NRG4 whole entry): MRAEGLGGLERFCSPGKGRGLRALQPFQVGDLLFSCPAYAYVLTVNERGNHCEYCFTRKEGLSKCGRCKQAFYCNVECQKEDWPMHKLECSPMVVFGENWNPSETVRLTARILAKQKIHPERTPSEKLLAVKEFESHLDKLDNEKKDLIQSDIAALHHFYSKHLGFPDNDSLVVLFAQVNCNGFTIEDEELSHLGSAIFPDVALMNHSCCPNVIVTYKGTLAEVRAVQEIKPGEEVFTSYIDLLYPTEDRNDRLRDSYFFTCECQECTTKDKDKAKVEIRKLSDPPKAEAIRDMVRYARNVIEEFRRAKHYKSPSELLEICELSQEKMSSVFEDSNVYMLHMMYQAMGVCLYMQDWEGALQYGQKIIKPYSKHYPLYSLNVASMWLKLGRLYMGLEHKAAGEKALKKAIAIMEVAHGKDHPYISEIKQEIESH

For `COc1ccc(C(=O)N/N=C/c2ccc([N+](=O)[O-])cc2)cc1Br` [DC-S285], the “binding to SET7 in T1ρ (CPMG) NMR” value on SET7 [1] is listed as “Strong binding signals”. In addition, the IC50 is 3.5 µM in the assay with THP1 leukemia cell line; 21.4 µM in [2]; 9.3 µM on SET7 [3] (AlphaLISA assay); 3.9 µM in the assay with U937 leukemia cell line; 19.5 µM at SET7 [4]; 2.2 µM in assay [5].
For the molecule `O=C(N/N=C/c1cc([N+](=O)[O-])ccc1Cl)c1ccc(-c2ccccc2)cc1` [DC-S303], the inhibition at 100 µM was determined as 24.6% at SMYD2; 27.1% at SETD1B; 55.2% on SETD8; 99% on SET7 [3] (AlphaLISA assay, SET7, 100 μM); 90.5% at SET7 [3] (SETD7, 100 μM, selectivity panel (Table 3)); 52.6% on G9a. For the same molecule, the values for the IC50 at SET7 [3] (AlphaLISA assay) and on SET7 [4] were 1.1 µM and 2.9 µM, respectively. Moreover, the “Inhibition Ratio at 100 μM/%” value on EZH2 was 47.88%.
